Earlier results, collected in PMC6959220, “Glycofullerenes as non-receptor tyrosine kinase inhibitors- towards better nanotherapeutics for pancreatic cancer treatment” (Scientific Reports, 2020).

Test system: NHDF
Design: method as in PMID 30562697

In the case of `Cc1nc(Nc2ncc(C(=O)Nc3c(C)cccc3Cl)s2)cc(N2CCN(CCO)CC2)n1` [Dasatinib, dasatinib], the “cytotoxic effects on a normal cell line” value is listed as “cytotoxic effects”.
